Reference: patent US9102622B2 (University of Connecticut, priority 2006, dated 2015)
Where two headings read alike, the source gives them in different places.

Target: fatty acid amide hydrolase (FAAH) (Rattus norvegicus (Rat), UniProt P97612)
Test: FAAH enzyme assay: inhibition of anandamide (AEA) hydrolysis, arachidonic acid quantified by HPLC
Format: biochemical
Settings: for inhibition at 100 µM / inhibition at 0.1 µM: read-out: % Inhibition (Concentration); for IC50 / Ki: eight-point assay; for IC50: anandamide hydrolysis by FAAH, read-out: IC50; for Ki: calculated with Prizm software, read-out: Ki; for inhibition at 0.1 µM: inhibitor 100 nM
Description: The resulting supernatant is injected onto the HPLC.

[1] = one-point assay, inhibitor 100 μM, partially purified rat brain FAAH, 15 min
[2] = one-point assay, partially purified rat brain FAAH, 15 min

Sequence of fatty acid amide hydrolase (FAAH) (P97612 whole entry): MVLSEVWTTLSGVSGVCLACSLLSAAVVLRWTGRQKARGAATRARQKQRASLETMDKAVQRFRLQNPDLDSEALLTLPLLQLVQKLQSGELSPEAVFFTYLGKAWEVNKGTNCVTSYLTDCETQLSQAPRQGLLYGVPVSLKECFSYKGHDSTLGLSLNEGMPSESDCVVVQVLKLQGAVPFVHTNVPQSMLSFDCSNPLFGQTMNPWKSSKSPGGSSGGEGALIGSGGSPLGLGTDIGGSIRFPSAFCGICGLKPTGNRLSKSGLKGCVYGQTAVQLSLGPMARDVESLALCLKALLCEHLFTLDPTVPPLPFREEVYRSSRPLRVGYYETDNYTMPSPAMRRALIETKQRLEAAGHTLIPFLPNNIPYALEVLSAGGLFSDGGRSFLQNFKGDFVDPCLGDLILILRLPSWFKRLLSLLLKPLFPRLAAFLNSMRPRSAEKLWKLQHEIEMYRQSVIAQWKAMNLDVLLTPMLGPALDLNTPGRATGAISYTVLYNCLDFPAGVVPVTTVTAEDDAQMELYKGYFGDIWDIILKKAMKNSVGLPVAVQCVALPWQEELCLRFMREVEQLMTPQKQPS

| SMILES | inhibition at 100 µM [1] [%] | IC50 [nM] | Ki [nM] | inhibition at 0.1 µM [2] [%] | inhibition at 100 µM [%] |
| --- | --- | --- | --- | --- | --- |
| CCCCCCC(C)(C)c1cc(OCOC)c(-c2ccc(NC(=O)OCC)cc2)c(OCOC)c1 [Compound 52.2, 2′,6′-Bis(methoxymethoxy)-4′-(1,1-dimethylheptyl)[1,1′-biphenyl]-4-yl carbamic acid ethyl ester] | 64 | – | – | – | – |
| CCCCCCC(C)(C)c1cc(OCOCC)c(-c2ccc(NC(=O)OCc3ccccc3)cc2)c(OCOCC)c1 [Compound 52.3, 2′,6′-Bis(ethoxymethoxy)-4′-(1,1-dimethylheptyl)[1,1′-biphenyl]-4-yl carbamic acid benzyl ester] | 41 | – | – | – | – |
| CCCCCCC(C)(C)c1cc(O)c(-c2ccc(NC(=O)OC3CCCCC3)cc2)c(O)c1 [Compound 53.1, 2′,6′-Dihydroxy-4′-(2-methyloctan-2-yl)biphenyl-4-yl carbamic acid cyclohexyl ester] | 23 | – | – | – | – |
| CCCCCCC(C)(C)c1cc(O)c(-c2ccc(NC(=O)OCC)cc2)c(O)c1 [Compound 53.2, 2′,6′-Dihydroxy-4′-(1,1-dimethylheptyl)[1,1′-biphenyl]-4-yl carbamic acid ethyl ester] | 15 | – | – | – | – |
| CCCCCCC(C)(C)c1cc(O)c(-c2ccc(NC(=O)OCc3ccccc3)cc2)c(O)c1 [Compound 53.3, 2′,6′-Dihydroxy-4′-(2-methyloctane-2-yl)biphenyl-4-yl carbamic acid benzyl ester] | 89 | – | – | – | – |
| O=C(NCc1ccc(Br)cc1)OCc1ccccc1 [Compound 57.2, (4-Bromobenzyl)carbamic acid benzyl ester] | 89 | – | – | – | – |
| Cc1nnc(C(=O)CCCCCCOc2ccc(OCc3ccccc3)cc2)o1 [Compound 65.2, 7-(4-Benzyloxy-phenoxy)-1-(5-methyl-1,3,4-oxadiazol-2-yl)-heptan-1-one] | 96 | 120 | 8 | – | – |
| Cc1nnc(C(=O)CCCCCCOc2ccc(O)cc2)o1 [Compound 66, 7-(4-Hydroxy-phenoxy)-1-(5-methyl-1,3,4-oxadiazol-2-yl)-heptan-1-one] | – | 100 | 6 | – | 97 |
| O=C(CCCCCCOc1ccccc1)c1nnc(COCc2ccccc2)o1 [Compound 73.1, 7-(Phenoxy)-1-(5-benzyloxymethyl-1,3,4-oxadiazol-2-yl)-heptan-1-one] | 94 | 25 | 2 | – | – |
| O=C(CCCCCCOc1ccc(OCc2ccccc2)cc1)c1nnc(COCc2ccccc2)o1 [Compound 73.2, 7-(4-Benzyloxy-phenoxy)-1-(5-benzyloxymethyl-1,3,4-oxadiazol-2-yl)-heptan-1-one] | – | 21 | 2 | – | 93 |
| O=C(CCCCCCOc1ccccc1)c1nnc(CO)o1 [Compound 74.1, 1-(5-hydroxymethyl-1,3,4-oxadiazol-2-yl)-7-phenoxy-heptan-1-one] | 96 | 15 | 1 | – | – |
| O=C(CCCCCCOc1ccc(O)cc1)c1nnc(COCc2ccccc2)o1 [Compound 74.2, 1-(5-benzyloxymethyl-1,3,4-oxadiazol-2-yl)-7-(4-hydroxy-phenoxy)-heptan-1-one] | 92 | 39 | 3 | – | – |
| COc1cccc(C(=O)c2nnc(C)o2)c1 [Compound 81, 1-(3-Methoxy-phenyl)-1-(5-methyl-1,3,4-oxadiazol-2-yl)-ketone] | 24 | – | – | – | – |
| O=C1c2ccccc2S(=O)(=O)N1CCCCOc1ccc(O)cc1 [Compound 84, N-[4-(4-Hydroxy-phenoxy)-butyl]saccharin] | 92 | 9100 | 900 | – | – |
| OC(O)(c1ccccn1)C(F)(F)CCCCOc1ccccc1 [Compound 89.9 Hydrate form] | – | 39 | 12 | 63 | – |
| CCOC(=O)C(=O)c1ccc(Br)cc1 [Compound 91.5, Ethyl 2-(4-bromophenyl)-2-oxoacetate] | 79 | – | – | – | – |

The next lines start with results.

| inhibition at 100 µM [1] [%] | IC50 [nM] | Ki [nM] | inhibition at 0.1 µM [2] [%] | SMILES | inhibition at 100 µM [%] |
| --- | --- | --- | --- | --- | --- |
| 42 | – | – | – | O=C1c2ccccc2S(=O)(=O)N1Cc1ccccc1 [Compound 83.1, N-(Phenylmethyl)saccharin] | – |
| 91 | 11600 | – | – | O=C1c2ccccc2S(=O)(=O)N1CCCCOc1ccccc1 [Compound 83.2, N-(4-Phenoxy-butyl)saccharin] | – |
| 87 | 10900 | – | – | O=C1c2ccccc2S(=O)(=O)N1CCCCOc1ccc(OCc2ccccc2)cc1 [Compound 83.3, N-[4-(4-Benzyloxy-phenoxy)-butyl]saccharin] | – |
| 100 | – | – | – | CCOC(=O)C(=O)CCCCOc1cccc(OCc2ccccc2)c1 [Compound 87.1] | – |
| 100 | 290 | 90 | – | CCOC(=O)C(=O)CCCCCOc1ccccc1 [Compound 87.4, 2-Oxo-7-phenoxy-heptanoic acid ethyl ester] | – |
| – | 270 | 80 | 79 | CC(=O)C(F)(F)CCCCOc1cccc(OCc2ccccc2)c1 [Compound 89.1] | – |
| 98 | – | – | – | CC(=O)C(F)(F)CCCCOc1ccccc1 [Compound 89.2] | – |
| 87 | 230 | 70 | – | CC(=O)C(F)(F)CCCCCOc1ccccc1 [Compound 89.4, 3,3-difluoro-8-phenoxy-2-octanone] | – |
| – | 31 | 9 | – | Cc1nnc(C(=O)C(F)(F)CCCCCCOc2ccccc2)o1 [Compound 89.7, 2,2-Difluoro-8-phenoxy-1-(5-methyl-1,3,4-oxadiazol-2-yl)-octan-1-one] | – |
| – | 77 | 24 | 52 | O=C(c1ccccn1)C(F)(F)CCCCOc1ccccc1 [Compound 89.9, 2,2-Difluoro-6-phenoxy-1-(pyridin-2-yl)-hexan-1-one] | – |
| – | 164 | 52 | 33 | O=C(c1cccnc1)C(F)(F)CCCCOc1ccccc1 [Compound 89.10, 2,2-Difluoro-6-phenoxy-1-(pyridin-3-yl)-hexan-1-one] | – |
| – | 24 | 7 | 85 | O=C(c1cccnc1)C(F)(F)CCCCOc1cccc(OCc2ccccc2)c1 [Compound 89.11, 2,2-Difluoro-6-[3-(benzyloxy)phenoxy]-1-(pyridin-3-yl)-hexan-1-one] | – |
| – | 310 | 100 | 20 | Cc1nnc(C(=O)C(F)(F)CCCCOc2ccccc2)o1 [Compound 89.12] | – |
| – | 38 | – | – | Cc1nnc(C(=O)C(F)(F)CCCCOc2cccc(OCc3ccccc3)c2)o1 [Compound 89.13] | – |
| 86 | 15000 | 4600 | – | CCOC(=O)C(=O)c1ccc(-c2ccccc2)cc1 [Compound 91.1, Ethyl 2-(biphenyl-4-yl)-2-oxoacetate] | – |
| – | 210 | 65 | 41 | Cc1nnc(C(=O)C(F)(F)c2ccc(-c3ccccc3)cc2)o1 [Compound 93.1, 2-(Biphenyl-4-yl)-2,2-difluoro-1-(5-methyl-1,3,4-oxadiazol-2-yl)ethanone] | – |
| 97 | 1670 | 530 | – | Cc1nnc(C(=O)C(F)(F)c2ccc(Br)cc2)o1 [Compound 93.5, 2-(4-Bromophenyl)-2,2-difluoro-1-(5-methyl-1,3,4-oxadiazol-2-yl)ethanone] | – |
